{"source": "ChEMBL document CHEMBL1122412", "about": "“Synthesis of a biologically active fluorescent muramyl dipeptide congener” (1983)", "assay_type_in_all_cases": "functional", "key": {"Cavia porcellus [1]": {"species_on_record": "Cavia porcellus", "experiment": "Ability of MDP to inhibit migration of cultured guinea pig peritoneal exudate macrophages at 0.01 ug/mL concentration in expt 1"}, "Cavia porcellus [2]": {"species_on_record": "Cavia porcellus", "experiment": "Ability of MDP to inhibit migration of cultured guinea pig peritoneal exudate macrophages at 0.01 ug/mL concentration in expt 2"}, "Cavia porcellus [3]": {"species_on_record": "Cavia porcellus", "experiment": "Ability of MDP to inhibit migration of cultured guinea pig peritoneal exudate macrophages at 0.01 ug/mL concentration in expt 3"}, "Cavia porcellus [4]": {"species_on_record": "Cavia porcellus", "experiment": "Ability of MDP to inhibit migration of cultured guinea pig peritoneal exudate macrophages at 0.1 ug/mL concentration in expt 1"}, "Cavia porcellus [5]": {"species_on_record": "Cavia porcellus", "experiment": "Ability of MDP to inhibit migration of cultured guinea pig peritoneal exudate macrophages at 0.1 ug/mL concentration in expt 2"}, "Cavia porcellus [6]": {"species_on_record": "Cavia porcellus", "experiment": "Ability of MDP to inhibit migration of cultured guinea pig peritoneal exudate macrophages at 0.1 ug/mL concentration in expt 3"}, "Cavia porcellus [7]": {"species_on_record": "Cavia porcellus", "experiment": "Ability of MDP to inhibit migration of cultured guinea pig peritoneal exudate macrophages at 0.1 ug/mL concentration in expt 4"}, "Cavia porcellus [8]": {"species_on_record": "Cavia porcellus", "experiment": "Ability of MDP to inhibit migration of cultured guinea pig peritoneal exudate macrophages at 0.1 ug/mL concentration in expt 5"}, "Cavia porcellus [9]": {"species_on_record": "Cavia porcellus", "experiment": "Ability of MDP to inhibit migration of cultured guinea pig peritoneal exudate macrophages at 1 ug/mL concentration in expt 1"}, "Cavia porcellus [10]": {"species_on_record": "Cavia porcellus", "experiment": "Ability of MDP to inhibit migration of cultured guinea pig peritoneal exudate macrophages at 1 ug/mL concentration in expt 2"}, "Cavia porcellus [11]": {"species_on_record": "Cavia porcellus", "experiment": "Ability of MDP to inhibit migration of cultured guinea pig peritoneal exudate macrophages at 1 ug/mL concentration in expt 3"}, "Cavia porcellus [12]": {"species_on_record": "Cavia porcellus", "experiment": "Ability of MDP to inhibit migration of cultured guinea pig peritoneal exudate macrophages at 1 ug/mL concentration in expt 4"}, "Cavia porcellus [13]": {"species_on_record": "Cavia porcellus", "experiment": "Ability of MDP to inhibit migration of cultured guinea pig peritoneal exudate macrophages at 10 ug/mL concentration in expt 4"}, "Cavia porcellus [14]": {"species_on_record": "Cavia porcellus", "experiment": "Ability of MDP to inhibit migration of cultured guinea pig peritoneal exudate macrophages at 10 ug/mL concentration in expt 5"}, "Cavia porcellus [15]": {"species_on_record": "Cavia porcellus", "experiment": "Ability of MDP to induce spreading of cultured guinea pig peritoneal exudate macrophages at 0.01 ug/mL concentration"}, "Cavia porcellus [16]": {"species_on_record": "Cavia porcellus", "experiment": "Ability of MDP to induce spreading of cultured guinea pig peritoneal exudate macrophages at 0.1 ug/mL concentration"}, "Cavia porcellus [17]": {"species_on_record": "Cavia porcellus", "experiment": "Ability of MDP to induce spreading of cultured guinea pig peritoneal exudate macrophages at 1 ug/mL concentration"}, "Cavia porcellus [18]": {"species_on_record": "Cavia porcellus", "experiment": "Ability of MDP to induce spreading of cultured guinea pig peritoneal exudate macrophages at 10 ug/mL concentration"}, "Cavia porcellus [19]": {"species_on_record": "Cavia porcellus", "experiment": "Ability of MDP to inhibit migration of cultured guinea pig peritoneal exudate macrophages at 1 ug/mL concentration in expt 5"}, "Cavia porcellus [20]": {"species_on_record": "Cavia porcellus", "experiment": "Ability of P-MDP to inhibit migration of cultured guinea pig peritoneal exudate macrophages at 1 ug/mL concentration in expt 3"}, "Cavia porcellus [21]": {"species_on_record": "Cavia porcellus", "experiment": "Ability of P-MDP to inhibit migration of cultured guinea pig peritoneal exudate macrophages at 1 ug/mL concentration in expt 4"}, "Cavia porcellus [22]": {"species_on_record": "Cavia porcellus", "experiment": "Ability of P-MDP to inhibit migration of cultured guinea pig peritoneal exudate macrophages at 10 ug/mL concentration in expt 4"}, "Cavia porcellus [23]": {"species_on_record": "Cavia porcellus", "experiment": "Ability of P-MDP to inhibit migration of cultured guinea pig peritoneal exudate macrophages at 0.01 ug/mL concentration in expt 2"}, "Cavia porcellus [24]": {"species_on_record": "Cavia porcellus", "experiment": "Ability of P-MDP to inhibit migration of cultured guinea pig peritoneal exudate macrophages at 0.01 ug/mL concentration in expt 3"}, "Cavia porcellus [25]": {"species_on_record": "Cavia porcellus", "experiment": "Ability of P-MDP to inhibit migration of cultured guinea pig peritoneal exudate macrophages at 0.1 ug/mL concentration in expt 3"}, "Cavia porcellus [26]": {"species_on_record": "Cavia porcellus", "experiment": "Ability of I-MDP to inhibit migration of cultured guinea pig peritoneal exudate macrophages at 0.1 ug/mL concentration in expt 1"}, "Cavia porcellus [27]": {"species_on_record": "Cavia porcellus", "experiment": "Ability of I-MDP to inhibit migration of cultured guinea pig peritoneal exudate macrophages at 0.1 ug/mL concentration in expt 2"}, "Cavia porcellus [28]": {"species_on_record": "Cavia porcellus", "experiment": "Ability of I-MDP to inhibit migration of cultured guinea pig peritoneal exudate macrophages at 1 ug/mL concentration in expt 1"}, "Cavia porcellus [29]": {"species_on_record": "Cavia porcellus", "experiment": "Ability of I-MDP to inhibit migration of cultured guinea pig peritoneal exudate macrophages at 1 ug/mL concentration in expt 2"}, "Cavia porcellus [30]": {"species_on_record": "Cavia porcellus", "experiment": "Ability of I-MDP to inhibit migration of cultured guinea pig peritoneal exudate macrophages at 10 ug/mL concentration in expt 2"}, "Cavia porcellus [31]": {"species_on_record": "Cavia porcellus", "experiment": "Ability of L,L-MDP to inhibit migration of cultured guinea pig peritoneal exudate macrophages at 0.01 ug/mL concentration in expt 4"}, "Cavia porcellus [32]": {"species_on_record": "Cavia porcellus", "experiment": "Ability of L,L-MDP to inhibit migration of cultured guinea pig peritoneal exudate macrophages at 0.1 ug/mL concentration in expt 4"}, "Cavia porcellus [33]": {"species_on_record": "Cavia porcellus", "experiment": "Ability of L,L-MDP to inhibit migration of cultured guinea pig peritoneal exudate macrophages at 1 ug/mL concentration in expt 4"}, "Cavia porcellus [34]": {"species_on_record": "Cavia porcellus", "experiment": "Ability of L,L-MDP to inhibit migration of cultured guinea pig peritoneal exudate macrophages at 10 ug/mL concentration in expt 5"}, "Cavia porcellus [35]": {"species_on_record": "Cavia porcellus", "experiment": "Ability of P-MDP to induce spreading of cultured guinea pig peritoneal exudate macrophages at 1 ug/mL concentration"}, "Cavia porcellus [36]": {"species_on_record": "Cavia porcellus", "experiment": "Ability of P-MDP to induce spreading of cultured guinea pig peritoneal exudate macrophages at 10 ug/mL concentration"}, "Cavia porcellus [37]": {"species_on_record": "Cavia porcellus", "experiment": "Ability of I-MDP to induce spreading of cultured guinea pig peritoneal exudate macrophages at 0.01 ug/mL concentration"}, "Cavia porcellus [38]": {"species_on_record": "Cavia porcellus", "experiment": "Ability of I-MDP to induce spreading of cultured guinea pig peritoneal exudate macrophages at 0.1 ug/mL concentration"}, "Cavia porcellus [39]": {"species_on_record": "Cavia porcellus", "experiment": "Ability of I-MDP to induce spreading of cultured guinea pig peritoneal exudate macrophages at 1 ug/mL concentration"}, "Cavia porcellus [40]": {"species_on_record": "Cavia porcellus", "experiment": "Ability of I-MDP to induce spreading of cultured guinea pig peritoneal exudate macrophages at 10 ug/mL concentration"}, "Cavia porcellus [41]": {"species_on_record": "Cavia porcellus", "experiment": "Ability of L,L-MDP to induce spreading of cultured guinea pig peritoneal exudate macrophages at 0.01 ug/mL concentration"}, "Cavia porcellus [42]": {"species_on_record": "Cavia porcellus", "experiment": "Ability of L,L-MDP to induce spreading of cultured guinea pig peritoneal exudate macrophages at 0.1 ug/mL concentration"}, "Cavia porcellus [43]": {"species_on_record": "Cavia porcellus", "experiment": "Ability of L,L-MDP to induce spreading of cultured guinea pig peritoneal exudate macrophages at 1 ug/mL concentration"}, "Cavia porcellus [44]": {"species_on_record": "Cavia porcellus", "experiment": "Ability of L,L-MDP to induce spreading of cultured guinea pig peritoneal exudate macrophages at 10 ug/mL concentration"}, "Cavia porcellus [45]": {"species_on_record": "Cavia porcellus", "experiment": "Ability of P-MDP to induce spreading of cultured guinea pig peritoneal exudate macrophages at 0.01 ug/mL concentration"}, "Cavia porcellus [46]": {"species_on_record": "Cavia porcellus", "experiment": "Ability of P-MDP to induce spreading of cultured guinea pig peritoneal exudate macrophages at 0.1 ug/mL concentration"}, "Cavia porcellus [47]": {"species_on_record": "Cavia porcellus", "experiment": "Ability of I-MDP to inhibit migration of cultured guinea pig peritoneal exudate macrophages at 0.01 ug/mL concentration in expt 1"}}, "note": "Where “and” joins values, the source holds several entries; their conditions need not be identical. Equal entries are not always repeated."}
{"smiles": "CC(=O)N[C@@H]1[C@@H](O[C@H](C)C(=O)N[C@@H](C)C(=O)N[C@H](CCC(=O)[O-])C(N)=O)[C@H](O)[C@@H](COc2nc(O)nc(N=C3C=CC(=C4c5ccc(O)cc5Oc5cc(O)ccc54)C(C(=O)[O-])=C3)n2)O[C@H]1O.[Na+].[Na+]", "values": [{"measurement": "Migration index", "setting": "Cavia porcellus [1]", "result": 73}, {"measurement": "Migration index", "setting": "Cavia porcellus [2]", "result": 84}, {"measurement": "Migration index", "setting": "Cavia porcellus [3]", "result": 62}, {"measurement": "Migration index", "setting": "Cavia porcellus [4]", "result": 102}, {"measurement": "Migration index", "setting": "Cavia porcellus [5]", "result": 52}, {"measurement": "Migration index", "setting": "Cavia porcellus [6]", "result": 27}, {"measurement": "Migration index", "setting": "Cavia porcellus [7]", "result": 51}, {"measurement": "Migration index", "setting": "Cavia porcellus [8]", "result": 74}, {"measurement": "Migration index", "setting": "Cavia porcellus [9]", "result": 63}, {"measurement": "Migration index", "setting": "Cavia porcellus [10]", "result": 60}, {"measurement": "Migration index", "setting": "Cavia porcellus [11]", "result": 18}, {"measurement": "Migration index", "setting": "Cavia porcellus [12]", "result": 49}, {"measurement": "Migration index", "setting": "Cavia porcellus [13]", "result": 53}, {"measurement": "Migration index", "setting": "Cavia porcellus [14]", "result": 74}, {"measurement": "Spreading", "setting": "Cavia porcellus [15]", "result": 45, "unit": "%"}, {"measurement": "Spreading", "setting": "Cavia porcellus [16]", "result": 68.5, "unit": "%"}, {"measurement": "Spreading", "setting": "Cavia porcellus [17]", "result": 74.3, "unit": "%"}, {"measurement": "Spreading", "setting": "Cavia porcellus [18]", "result": 73.3, "unit": "%"}, {"measurement": "Migration index", "setting": "Cavia porcellus [19]", "result": 70}]}
{"smiles": "CC(=O)N[C@H]1C(O)O[C@H](CO)[C@@H](O)[C@@H]1O[C@H](C)C(=O)N[C@@H](C)C(=O)N[C@H](CCC(=O)O)C(N)=O", "note": "(some centres not stated) [MURAMYL DIPEPTIDE]", "values": [{"measurement": "Migration index", "setting": "Cavia porcellus [20]", "result": "17 and 34"}, {"measurement": "Migration index", "setting": "Cavia porcellus [21]", "result": 62}, {"measurement": "Migration index", "setting": "Cavia porcellus [22]", "result": "52 and 63"}, {"measurement": "Migration index", "setting": "Cavia porcellus [23]", "result": 63}, {"measurement": "Migration index", "setting": "Cavia porcellus [24]", "result": 12}, {"measurement": "Migration index", "setting": "Cavia porcellus [25]", "result": "52 and 34 and 26"}, {"measurement": "Migration index", "setting": "Cavia porcellus [26]", "result": "68 and 88"}, {"measurement": "Migration index", "setting": "Cavia porcellus [27]", "result": "64 and 68"}, {"measurement": "Migration index", "setting": "Cavia porcellus [28]", "result": "70 and 114"}, {"measurement": "Migration index", "setting": "Cavia porcellus [29]", "result": "61 and 64"}, {"measurement": "Migration index", "setting": "Cavia porcellus [30]", "result": 64}, {"measurement": "Migration index", "setting": "Cavia porcellus [31]", "result": 54}, {"measurement": "Migration index", "setting": "Cavia porcellus [32]", "result": 58}, {"measurement": "Migration index", "setting": "Cavia porcellus [33]", "result": 52}, {"measurement": "Migration index", "setting": "Cavia porcellus [34]", "result": 65}, {"measurement": "Spreading", "setting": "Cavia porcellus [35]", "result": 75.5, "unit": "%"}, {"measurement": "Spreading", "setting": "Cavia porcellus [36]", "result": 79, "unit": "%"}, {"measurement": "Spreading", "setting": "Cavia porcellus [37]", "result": 50, "unit": "%"}, {"measurement": "Spreading", "setting": "Cavia porcellus [38]", "result": 72.5, "unit": "%"}, {"measurement": "Spreading", "setting": "Cavia porcellus [39]", "result": 73, "unit": "%"}, {"measurement": "Spreading", "setting": "Cavia porcellus [40]", "result": 80, "unit": "%"}, {"measurement": "Spreading", "setting": "Cavia porcellus [41]", "result": 48, "unit": "%"}, {"measurement": "Spreading", "setting": "Cavia porcellus [42]", "result": 56, "unit": "%"}, {"measurement": "Spreading", "setting": "Cavia porcellus [43]", "result": 51.5, "unit": "%"}, {"measurement": "Spreading", "setting": "Cavia porcellus [44]", "result": 76, "unit": "%"}, {"measurement": "Spreading", "setting": "Cavia porcellus [45]", "result": 62.5, "unit": "%"}, {"measurement": "Spreading", "setting": "Cavia porcellus [46]", "result": 80, "unit": "%"}, {"measurement": "Migration index", "setting": "Cavia porcellus [47]", "result": "119 and 92 and 108"}]}
